What was measured:
hTLR9 = molecular target: T1, hTLR9 (Homo sapiens, UniProt Q9NR96); assay: TLR9 inhibition, ODN2395-induced hTNFα in Daudi; format: cell-based
T1 construct: human B lymphoblasts (Daudi cells); endogenous in cells; host or cells: Daudi
Procedure: RAW 264.7 and differentiated THP-1 cells were seeded into 96-well plates at 2 × 10^4 cells per well, while Daudi cells were seeded at 5 × 10^4 cells per well. After stabilization for 30 min, cells were stimulated with specific TLR agonists for 4 or 24 h. Supernatants were diluted and transferred to precoated ELISA plates to measure TNF-α secretion using kits from Invitrogen. Optical absorbance was measured using a BioTek Synergy HTX multimode microplate reader, and data were interpolated using BioTek Gen5 software.
One-tailed paired Student’s t-tests were performed using Microsoft Excel (Microsoft). Semi-logarithmic conversions and nonregression curve analyses for calculating 50% lethal concentration (LC50) and 50% inhibitory concentration (IC50) values were conducted using GraphPad Prism 7.0 (GraphPad). The therapeutic index was calculated as […]. Animal experimental results are expressed as mean ± standard deviation and analyzed using SPSS v.20 (IBM SPSS Statistics). Homogeneity of variance was assessed using Levene’s test. […]

IL-23-induced psoriasis = IL-23-induced psoriasis in mice; format: in vivo, mouse; details: 60 mg/kg oral daily; for Improvement of disease symptoms: versus anti-IL-17A antibody IP
Procedure: Six-week-old female C57BL/6J mice were assigned to the following treatment groups: vehicle (n = 5), IMQ (n = 5), ETI41 (n = 4) and ETI60 (n = 5). The mice were obtained from Orient Bio to evaluate the effects of ETI41 and ETI60 on induced psoriasis-like symptoms. This study was approved by the Institutional Animal Care and Use Committee (IACUC; approval no. 2014-0007). Psoriasis was induced using Aldara cream (3M Pharmaceuticals), which was applied topically at 62.5 mg/cm² daily from the day after hair removal until the fourth day. Mice were orally administered 60 mg/kg ETI41 or ETI60 daily commencing on the second day of induction. For IL-23-induced psoriasis, the mice were assigned to the following treatment groups: vehicle (n = 5), IL-23 (n = 5), ETI41 (n = 5), ETI60 (n = 5) and anti-IL-17 Ab (n = 5). Recombinant mouse IL-23 (0.25 mg/kg; BioLegend) was administered via intradermal injection around the ear daily, starting the day after hair removal and continuing until the eighth day. Positive control mice received intraperitoneal (IP) injections of 30 mg/kg anti-mouse IL-17A antibody (BioLegend) on days 2, 5 and 8, while test group mice were administered daily oral doses of 60 mg/kg of ETI41 or ETI60. Changes in body weight and Psoriasis Area and Severity Index (PASI) scores (erythema, scaling and thickness) were recorded daily. Mice were initially anesthetized in an induction chamber with a gas mixture of 4% isoflurane in 70:30 […] and O2, delivered at a flow rate of 0.8 l/min. Subsequently, the isoflurane concentration was reduced to 2%, and the mice were euthanized under anesthesia via endotracheal intubation. Skin samples were collected, fixed and stained with hematoxylin and eosin for histological analysis. Dermal and epidermal thicknesses were measured using a Leica DMi8 microscope (Leica). Immunohistochemical analyses were performed using primary antibodies against CD68 (R&D Systems, MAB101141), Ki-67 (Cell Signaling Technology, 12202), IL-17A (Novus Biologicals, NBP1-72027) and IL-23 (Novus Biologicals, NBP1-76697), followed by detection using biotinylated secondary antibodies (Vector Laboratories) and diaminobenzidine (Vector Laboratories) visualization. Fluorescence measurements for IL-23-induced psoriasis were performed using primary antibodies against CD68 and Ki-67, followed by Alexa Fluor-conjugated secondary antibodies (Life Technologies). Fluorescence was analyzed using a Leica DMi8 microscope.
Anti-IL17A antibody (Ab, 60 µg) was administered by IP injection as a positive control on days 2, 5 and 8. […] CD68 and Ki-67 expression patterns were determined in skin sections from a representative of each group using immunofluorescence. i Ear skin and epidermis thickness, CD68 expression and percentage of Ki-67 cells were examined from 4’,6-diamidino-2-phenylindole-stained cells. Statistical differences between the induced case and other cases were analyzed and verified using a one-tailed Student’s t-test (*P < 0.05, **P < 0.01, ***P < 0.001).
Next, we investigated the therapeutic efficacy of ETI41 and ETI60 in an IL-23-induced mouse model of psoriasis. Psoriasis was induced through intradermal injections of recombinant murine IL-23. As a positive control, an IL-17A antibody was administered intraperitoneally at a dose of 30 mg/kg on days 2, 5 and 8 (Fig. 4f). ETI41 or ETI60 was orally administered daily at a dose of 60 mg/kg. […] These findings indicate that ETI41 and ETI60 effectively alleviate the progression of psoriasis, either through direct involvement of TLR7 or through an indirect involvement of the IL-23–Th17 axis.

T1 sequence (Q9NR96 26-1032): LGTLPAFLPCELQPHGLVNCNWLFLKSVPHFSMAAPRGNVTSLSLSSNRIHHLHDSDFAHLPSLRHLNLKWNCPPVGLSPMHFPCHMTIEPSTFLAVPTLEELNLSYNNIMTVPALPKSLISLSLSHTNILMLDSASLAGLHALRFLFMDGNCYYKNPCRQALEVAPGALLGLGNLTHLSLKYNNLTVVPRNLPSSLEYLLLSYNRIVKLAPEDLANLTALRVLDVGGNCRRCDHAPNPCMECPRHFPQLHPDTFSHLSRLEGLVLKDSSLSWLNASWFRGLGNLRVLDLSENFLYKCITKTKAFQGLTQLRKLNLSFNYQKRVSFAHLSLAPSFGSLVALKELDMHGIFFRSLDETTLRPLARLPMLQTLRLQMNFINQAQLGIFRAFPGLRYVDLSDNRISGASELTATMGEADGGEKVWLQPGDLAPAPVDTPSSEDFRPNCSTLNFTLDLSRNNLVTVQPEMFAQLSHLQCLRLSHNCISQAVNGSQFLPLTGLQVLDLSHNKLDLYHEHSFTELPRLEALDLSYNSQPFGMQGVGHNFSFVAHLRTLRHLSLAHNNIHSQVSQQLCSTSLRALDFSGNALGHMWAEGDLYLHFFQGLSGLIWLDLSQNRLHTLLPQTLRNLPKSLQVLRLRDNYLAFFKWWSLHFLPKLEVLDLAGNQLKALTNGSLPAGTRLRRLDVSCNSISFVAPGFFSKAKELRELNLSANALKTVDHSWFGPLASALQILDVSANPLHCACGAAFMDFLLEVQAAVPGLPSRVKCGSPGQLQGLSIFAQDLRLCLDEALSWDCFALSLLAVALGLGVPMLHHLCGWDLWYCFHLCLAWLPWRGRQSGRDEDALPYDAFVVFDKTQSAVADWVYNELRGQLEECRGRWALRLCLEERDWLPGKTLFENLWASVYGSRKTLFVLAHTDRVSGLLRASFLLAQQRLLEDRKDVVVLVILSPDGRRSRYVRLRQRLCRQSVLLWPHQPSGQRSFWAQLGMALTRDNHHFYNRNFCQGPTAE

| SMILES | IC50 (hTLR9) | Body weight (IL-23-induced psoriasis) | CD68 expression (IL-23-induced psoriasis) | Ear thickness (IL-23-induced psoriasis) | Epidermal thickness (IL-23-induced psoriasis) | Ki-67 keratinocyte proliferation (IL-23-induced psoriasis) | Improvement of disease symptoms (IL-23-induced psoriasis) |
| --- | --- | --- | --- | --- | --- | --- | --- |
| Cc1cc2c(N)c3c(nc2n1CCCN(C)C)CCCCCC3 [ETI41] | 80.1 nM | without significant differences | significantly decreased | significantly decreased | significantly decreased | significantly decreased | comparable to or better than the anti-IL-17A antibody |
| COc1ccc2c3c(N)c4c(nc3n(CCCN(C)C)c2c1)CCCC4 [ETI60] | 20.9 nM | without significant differences | significantly decreased | significantly decreased | significantly decreased | significantly decreased | comparable to or better than the anti-IL-17A antibody |
